Measurements published in the supplement of paper PMC10307832.

Key:
Assay in all cases: relative viability (nuclei count vs DMSO), 5 days (fraction); higher = more cells survive
[1] = compound: C1COCCN1C2=NC(=NC3=C2OC4=C3C=CC=N4)C5=CC(=CC=C5)NC(=O)C6=CN=C(C=C6)N + Cc1nc(Nc2ncc(C(=O)Nc3c(C)cccc3Cl)s2)cc(N2CCN(CCO)CC2)n1 [Dasatinib] (partner 0.075 µM)
Outline: (§1)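 Each reported value is a median over duplicate plates. It expresses relative viability: treated-well nuclei count divided by vehicle-well nuclei count. Lung cancer cell lines in 1536-well plates were dosed by pin tool a day after seeding, alone with one drug or with a fixed anchor-drug dose plus five library-drug doses (not always all listed) in √10 steps, and nuclei were counted after 5 days.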

[2] = compound: C1COCCN1C2=NC(=NC3=C2OC4=C3C=CC=N4)C5=CC(=CC=C5)NC(=O)C6=CN=C(C=C6)N + COc1cc2c(Oc3ccc(NC(=O)C4(C(=O)Nc5ccc(F)cc5)CC4)cc3F)ccnc2cc1OCCCN1CCOCC1 [Foretinib] (partner 0.25 µM)
Outline: as §1

SGI-1776 + Crizotinib = compound: CN1CCC(CNc2ccc3ncc(-c4cccc(OC(F)(F)F)c4)n3n2)CC1 [SGI-1776] + C[C@@H](Oc1cc(-c2cnn(C3CCNCC3)c2)cnc1N)c1c(Cl)ccc(F)c1Cl [Crizotinib] (partner 1 µM)
Outline: as §1

[3] = compound: C1COCCN1C2=NC(=NC3=C2OC4=C3C=CC=N4)C5=CC(=CC=C5)NC(=O)C6=CN=C(C=C6)N + CC1(C)CCC(c2ccc(Cl)cc2)=C(CN2CCN(c3ccc(C(=O)NS(=O)(=O)c4ccc(N[C@H](CCN5CCOCC5)CSc5ccccc5)c(S(=O)(=O)C(F)(F)F)c4)cc3)CC2)C1 [Navitoclax] (partner 0.5 µM)
Outline: as §1

**Q.** With UMC-11 as the cell line, how does the relative viability ([1]; first compound 0.02 µM) read?
**A.** 0.454

**Q.** And the relative viability ([1]; first compound 0.06325 µM)?
**A.** 0.519

**Q.** And the relative viability ([1]; first compound 0.2 µM)?
**A.** 0.514

**Q.** What about the relative viability ([1]; first compound 0.6325 µM) of the same cell line?
**A.** 0.527

**Q.** What about the relative viability ([1]; first compound 2 µM) of the same cell line?
**A.** 0.266

**Q.** What about the relative viability ([2]; first compound 0.02 µM) of the same cell line?
**A.** 1.05

**Q.** What about the relative viability ([2]; first compound 0.06325 µM) of the same cell line?
**A.** 1.08

**Q.** And the relative viability ([2]; first compound 0.2 µM)?
**A.** 1.21

**Q.** And the relative viability ([2]; first compound 0.6325 µM)?
**A.** 1.19

**Q.** And the relative viability ([2]; first compound 2 µM)?
**A.** 0.871

**Q.** What about the relative viability (SGI-1776 + Crizotinib; first compound 0.08 µM) of the same cell line?
**A.** 0.614

**Q.** And the relative viability (SGI-1776 + Crizotinib; first compound 0.8 µM)?
**A.** 0.498

**Q.** And the relative viability (SGI-1776 + Crizotinib; first compound 2.53 µM)?
**A.** 0.665

**Q.** What about the relative viability (SGI-1776 + Crizotinib; first compound 8 µM) of the same cell line?
**A.** 0.169

**Q.** What about the relative viability ([3]; first compound 0.02 µM) of the same cell line?
**A.** 0.278

**Q.** What about the relative viability ([3]; first compound 0.06325 µM) of the same cell line?
**A.** 0.292

**Q.** What about the relative viability ([3]; first compound 0.2 µM) of the same cell line?
**A.** 0.266

**Q.** And the relative viability ([3]; first compound 0.6325 µM)?
**A.** 0.284

**Q.** What about the relative viability ([3]; first compound 2 µM) of the same cell line?
**A.** 0.246
